This assay deals with T1, SIRT1 (Homo sapiens, UniProt Q96EB6).
T1 sequence (Q96EB6 1-747): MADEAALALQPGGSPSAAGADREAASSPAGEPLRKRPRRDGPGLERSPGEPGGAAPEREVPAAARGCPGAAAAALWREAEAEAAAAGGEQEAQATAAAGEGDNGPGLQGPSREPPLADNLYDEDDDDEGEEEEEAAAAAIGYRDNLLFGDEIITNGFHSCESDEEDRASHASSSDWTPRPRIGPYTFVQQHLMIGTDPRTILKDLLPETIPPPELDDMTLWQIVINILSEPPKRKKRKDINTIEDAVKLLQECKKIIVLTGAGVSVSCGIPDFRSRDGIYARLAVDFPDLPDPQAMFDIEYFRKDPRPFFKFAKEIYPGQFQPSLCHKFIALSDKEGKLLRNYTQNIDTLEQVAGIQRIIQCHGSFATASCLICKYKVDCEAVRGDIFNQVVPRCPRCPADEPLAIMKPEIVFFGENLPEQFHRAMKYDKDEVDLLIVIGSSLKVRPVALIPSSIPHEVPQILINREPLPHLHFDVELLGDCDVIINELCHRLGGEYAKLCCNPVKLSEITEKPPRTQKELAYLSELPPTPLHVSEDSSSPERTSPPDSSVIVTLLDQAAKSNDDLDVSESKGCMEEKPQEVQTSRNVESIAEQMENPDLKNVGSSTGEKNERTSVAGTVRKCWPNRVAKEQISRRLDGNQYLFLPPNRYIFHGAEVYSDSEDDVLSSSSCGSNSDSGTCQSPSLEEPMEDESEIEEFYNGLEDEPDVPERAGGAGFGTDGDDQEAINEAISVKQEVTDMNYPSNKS
Briefly: Mass spectrometry based SIRT1 deacetylation (activation) assay. The following applies: 0.5 μM peptide substrate, 120 μM βNAD+, 10 nM SIRT1, 25 min at 25° C.; for Emax: 25 min, read-out: % Fold Act. (percent maximum fold activation). In kind it is biochemical. The text has this: A mass spectrometry based assay was used to identify modulators of SIRT1 activity. The mass spectrometry based assay utilizes a peptide having 20 amino acid residues as follows: Ac-EE-K(biotin)-GQSTSSHSK(Ac)NleSTEG-K(5TMR)-EE-NH2 (SEQ ID NO: 1) wherein K(Ac) is an acetylated lysine residue and Nle is a norleucine. The peptide is labeled with the fluorophore 5TMR (excitation 540 nm/emission 580 nm) at the C-terminus. The sequence of the peptide substrate is based on p53 with several modifications. In addition, the methionine residue naturally present in the sequence was replaced with the norleucine because the methionine may be susceptible to oxidation during synthesis and purification.
The mass spectrometry assay is conducted as follows: 0.5 μM peptide substrate and 120 μM βNAD^+ is incubated with 10 nM SIRT1 for 25 minutes at 25° C. in a reaction buffer (50 mM Tris-acetate pH 8, 137 mM NaCl, 2.7 mM KCl, 1 mM MgCl2, 5 mM DTT, 0.05% BSA). Test compounds may be added to the reaction as described above. […] After the 25 minute incubation with SIRT1, 10 μL of 10% formic acid is added to stop the reaction. Reactions are sealed and frozen for later mass spec analysis. Determination of the mass of the substrate peptide allows for precise determination of the degree of acetylation (i.e. starting material) as compared to deacetylated peptide (product).
A control for inhibition of sirtuin activity is conducted by adding 1 μL of 500 mM nicotinamide as a negative control at the start of the reaction (e.g., permits determination of maximum sirtuin inhibition). A control for activation of sirtuin activity is conducted using 10 nM of sirtuin protein, with 1 μL of DMSO in place of compound, to determine the amount of deacetylation of the substrate at a given timepoint within the linear range of the assay. This timepoint is the same as that used for test compounds and, within the linear range, the endpoint represents a change in velocity.
For the above assay, SIRT1 protein was expressed and purified as follows. […] The protein was expressed by induction with 1 mM IPTG as an N-terminal His-tag fusion protein at 18° C. overnight and harvested at 30,000×g. Cells were lysed with lysozyme in lysis buffer (50 mM Tris-HCl, 2 mM Tris[2-carboxyethyl]phosphine (TCEP), 10 μM ZnCl2, 200 mM NaCl) and further treated with sonication for 10 min for complete lysis. The protein was purified over a Ni-NTA column (Amersham) and fractions containing pure protein were pooled, concentrated and run over a sizing column (Sephadex S200 26/60 global). The peak containing soluble protein was collected and run on an Ion-exchange column (MonoQ). Gradient elution (200 mM-500 mM NaCl) yielded pure protein. This protein was concentrated and dialyzed against dialysis buffer (20 mM Tris-HCl, 2 mM TCEP) overnight. The protein was aliquoted and frozen at −80° C. until further use.

A value given as a limit tells only on which side of the number the result lay.

Take `CN(C)CCNC(=O)c1nnc(-c2ccccc2NC(=O)c2cc(NCCN(C)C)nc(-c3ccccc3)n2)s1` [Compound 58]: the EC1.5 result is on record as “A (EC1.5≦1 uM)” and the Emax was at least 300%.
The corresponding values for `CCOC(=O)c1nnc(-c2ccccc2NC(=O)c2cc(N(CC)CCN(C)C)nc(-c3ccccc3)n2)s1` [Compound 59] are “A (EC1.5≦1 uM)” and 150 to 300%.
The corresponding values for `CC(C)Cc1nnc(-c2ccccc2NC(=O)c2cc(NCCN(C)C)nc(-c3ccccc3)n2)s1` [Compound 60] are “A (EC1.5≦1 uM)” and 150 to 300%.
Take `CCCCc1nnc(-c2ccccc2NC(=O)c2cc(NCCN(C)C)nc(-c3ccccc3)n2)s1` [Compound 61]: the EC1.5 entry was “B (EC1.5>1 and ≦10 uM)”; the Emax was below 150%.
Regarding `CCCCc1nnc(-c2ccccc2NC(=O)c2cc(N(CC)CCN(C)C)nc(-c3ccccc3)n2)s1` [Compound 62], the EC1.5 entry is reported as “A (EC1.5≦1 uM)” and the Emax is 150 to 300%.
`CCN(CCN(C)C)c1cc(C(=O)Nc2ccccc2-c2ncc(C(C)(C)C)s2)nc(-c2ccccc2)n1` [Compound 63]: the EC1.5 entry was “A (EC1.5≦1 uM)” and the Emax was 150 to 300%.
As for `CCN(CCN(C)C)c1cc(C(=O)Nc2ccccc2-c2ncc(-c3ccccc3)o2)nc(-c2ccccc2)n1` [Compound 64], the EC1.5 result was “A (EC1.5≦1 uM)” and the Emax lay within 150 to 300%.
Consider `CCN(CCN(C)C)c1cc(C(=O)Nc2ccccc2-c2ncc(C(C)(C)C)o2)nc(-c2ccccc2)n1` [Compound 65], for which the EC1.5 entry is “B (EC1.5>1 and ≦10 uM)”; the Emax fell in the range of 150 to 300%.
For `CN(C)CCNc1cc(C(=O)Nc2ccccc2-c2nnc(C(N)=O)s2)nc(-c2ccccc2)n1` [Compound 66], the EC1.5 entry is given as “A (EC1.5≦1 uM)” and the Emax lay within 150 to 300%.
Taken in the same sequence, the figures for `NC(=O)c1nnc(-c2ccccc2NC(=O)c2cc(N3CCNCC3)nc(-c3ccccc3)n2)s1` [Compound 67] were “A (EC1.5≦1 uM)” and 150 to 300%.
As for `CCN(CCN(C)C)c1cc(C(=O)Nc2ccccc2-c2cnc(-c3ccccc3)[nH]2)nc(-c2ccccc2)n1` [Compound 68], the EC1.5 result is reported as “A (EC1.5≦1 uM)” and the Emax is at least 300%.
Turning to `NC(=O)c1nnc(-c2ccccc2NC(=O)c2cc(N3CCN4CCC[C@H]4C3)nc(-c3ccccc3)n2)s1` [Compound 69], the EC1.5 entry is “A (EC1.5≦1 uM)” and the Emax was in the range of 150 to 300%.
Taken in the same sequence, the figures for `CC(C)(C)c1cnc(-c2ccccc2NC(=O)c2cc(N3CCOCC3)cc(-c3ccccc3)n2)o1` [Compound 70] were “A (EC1.5≦1 uM)” and 150 to 300%.
The corresponding values for `CCN(CCN(C)C)c1cc(C(=O)Nc2ccccc2-c2nnc(C(N)=O)s2)nc(-c2ccccc2)n1` [Compound 71] are “A (EC1.5≦1 uM)” and 150 to 300%.
Taken in the same sequence, the figures for `CC(C)c1nnc(-c2ccccc2NC(=O)c2cc(NCCN(C)C)nc(-c3ccccc3)n2)s1` [Compound 72] were “A (EC1.5≦1 uM)” and at least 300%.
On to `CN(C)CCNc1cc(C(=O)Nc2ccccc2-c2nnc(-c3ccccn3)s2)nc(-c2ccccc2)n1` [Compound 73], for which the EC1.5 result was “A (EC1.5≦1 uM)” and the Emax is at least 300%.
In the case of `CCN(CCN(C)C)c1cc(C(=O)Nc2ccccc2-c2nnc(-c3ccccn3)s2)nc(-c2ccccc2)n1` [Compound 74], the EC1.5 result is on record as “A (EC1.5≦1 uM)” and the Emax was at least 300%.
In the case of `CC(C)(C)c1cnc(-c2ccccc2NC(=O)c2cc(OC[C@@H](O)CO)cc(-c3ccccc3)n2)s1` [Compound 75], the EC1.5 entry is “B (EC1.5>1 and ≦10 uM)”; the Emax is at least 300%.
Regarding `CC(C)(C)c1cnc(-c2ccccc2NC(=O)c2cc(OC[C@@H](O)CO)cc(-c3ccccc3)n2)o1` [Compound 76], the EC1.5 entry was “B (EC1.5>1 and ≦10 uM)”; the Emax is at least 300%.
Regarding `CN(C)CCNc1cc(C(=O)Nc2ccccc2-c2nnc(-c3cccnc3)s2)nc(-c2ccccc2)n1` [Compound 77], the EC1.5 entry was “A (EC1.5≦1 uM)” and the Emax is at least 300%.
Consider `CN(C)CCNc1cc(C(=O)Nc2ccccc2-c2nnc(-c3ccncc3)s2)nc(-c2ccccc2)n1` [Compound 78], for which the EC1.5 entry was “A (EC1.5≦1 uM)” and the Emax is at least 300%.
Taken in the same sequence, the figures for `CCCc1nnc(-c2ccccc2NC(=O)c2cc(N(CC)CCN(C)C)nc(-c3ccccc3)n2)s1` [Compound 79] were “A (EC1.5≦1 uM)” and at least 300%.
As to `CCN(CCN(C)C)c1cc(C(=O)Nc2ccccc2-c2nnc(CC(C)C)s2)nc(-c2ccccc2)n1` [Compound 80], the EC1.5 result is “B (EC1.5>1 and ≦10 uM)”; the Emax lay in the range of 150 to 300%.
Regarding `CCN(CCN(C)C)c1cc(C(=O)Nc2ccccc2-c2nnc(-c3cccnc3)s2)nc(-c2ccccc2)n1` [Compound 81], the EC1.5 entry is recorded as “A (EC1.5≦1 uM)” and the Emax was at least 300%.
As for `CCN(CCN(C)C)c1cc(C(=O)Nc2ccccc2-c2nnc(-c3ccncc3)s2)nc(-c2ccccc2)n1` [Compound 82], the EC1.5 result is listed as “A (EC1.5≦1 uM)” and the Emax is at least 300%.
Regarding `CCN(CCN(C)C)c1cc(C(=O)Nc2ccccc2-c2nnc(C(C)C)s2)nc(-c2ccccc2)n1` [Compound 83], the EC1.5 entry was “A (EC1.5≦1 uM)” and the Emax is at least 300%.
Taken in the same sequence, the figures for `CCN(CCOC)c1cc(C(=O)Nc2ccccc2-c2ncc(C(C)(C)C)s2)nc(-c2ccccc2)c1` [Compound 84] were “A (EC1.5≦1 uM)” and 150 to 300%.
With `CCN(CCOC)c1cc(C(=O)Nc2ccccc2-c2ncc(C(C)(C)C)o2)nc(-c2ccccc2)c1` [Compound 85], the EC1.5 entry is “A (EC1.5≦1 uM)” and the Emax was at least 300%.
Taken in the same sequence, the figures for `CCN(CCN(C)C)c1cc(C(=O)Nc2ccccc2-c2nnc(C(=O)NC)s2)nc(-c2ccccc2)n1` [Compound 86] were “A (EC1.5≦1 uM)” and 150 to 300%.
As to `CCN(CCN(C)C)c1cc(C(=O)Nc2ccccc2-c2nnc(C(=O)N3CCOCC3)s2)nc(-c2ccccc2)n1` [Compound 87], the EC1.5 result is “A (EC1.5≦1 uM)” and the Emax was at least 300%.
Taken in the same sequence, the figures for `CN1CCN(c2cc(C(=O)Nc3ccccc3-c3nnc(C(=O)N4CCOCC4)s3)nc(-c3ccccc3)n2)CC1=O` [Compound 88] were “A (EC1.5≦1 uM)” and at least 300%.
The corresponding values for `O=C1CN(c2cc(C(=O)Nc3ccccc3-c3nnc(C(=O)N4CCOCC4)s3)nc(-c3ccccc3)n2)CCN1` [Compound 89] are “A (EC1.5≦1 uM)” and at least 300%.
Consider `O=C(Nc1ccccc1-c1nnc(C(=O)N2CCOCC2)s1)c1cc(NC(CO)CO)nc(-c2ccccc2)n1` [Compound 90], for which the EC1.5 entry is listed as “A (EC1.5≦1 uM)” and the Emax is at least 300%.
For `O=C(Nc1ccccc1-c1nnc(C(=O)N2CCOCC2)s1)c1cc(OC[C@@H](O)CO)nc(-c2ccccc2)n1` [Compound 91], the EC1.5 result is on record as “A (EC1.5≦1 uM)” and the Emax lay in the range of 150 to 300%.

(Values after US20110039847A1, “AMIDE DERIVATIVES AS SIRTUIN MODULATORS” (Sirtris Pharmaceuticals, Inc, priority 2007, published 2011).)
